Source: patent US9783536B2, “Nitrogen-containing heterocyclic compound or salt thereof” (FUJIFILM Corporation, priority 2013, dated 2017)
Read-outs that look alike come from different tables or passages of the source.

Key:
human PI3Kα protein = target: T1, human PI3Kα protein (Homo sapiens, UniProt P42336); assay: PI3Kα enzyme assay (ADP-Glo); assay type: biochemical; settings: read-out: PI3Kα enzyme inhibitory activity
T1 construct: purchased Carna Biosciences, Inc; host or cells: baculovirus expression system
T1 sequence (P42336 whole entry): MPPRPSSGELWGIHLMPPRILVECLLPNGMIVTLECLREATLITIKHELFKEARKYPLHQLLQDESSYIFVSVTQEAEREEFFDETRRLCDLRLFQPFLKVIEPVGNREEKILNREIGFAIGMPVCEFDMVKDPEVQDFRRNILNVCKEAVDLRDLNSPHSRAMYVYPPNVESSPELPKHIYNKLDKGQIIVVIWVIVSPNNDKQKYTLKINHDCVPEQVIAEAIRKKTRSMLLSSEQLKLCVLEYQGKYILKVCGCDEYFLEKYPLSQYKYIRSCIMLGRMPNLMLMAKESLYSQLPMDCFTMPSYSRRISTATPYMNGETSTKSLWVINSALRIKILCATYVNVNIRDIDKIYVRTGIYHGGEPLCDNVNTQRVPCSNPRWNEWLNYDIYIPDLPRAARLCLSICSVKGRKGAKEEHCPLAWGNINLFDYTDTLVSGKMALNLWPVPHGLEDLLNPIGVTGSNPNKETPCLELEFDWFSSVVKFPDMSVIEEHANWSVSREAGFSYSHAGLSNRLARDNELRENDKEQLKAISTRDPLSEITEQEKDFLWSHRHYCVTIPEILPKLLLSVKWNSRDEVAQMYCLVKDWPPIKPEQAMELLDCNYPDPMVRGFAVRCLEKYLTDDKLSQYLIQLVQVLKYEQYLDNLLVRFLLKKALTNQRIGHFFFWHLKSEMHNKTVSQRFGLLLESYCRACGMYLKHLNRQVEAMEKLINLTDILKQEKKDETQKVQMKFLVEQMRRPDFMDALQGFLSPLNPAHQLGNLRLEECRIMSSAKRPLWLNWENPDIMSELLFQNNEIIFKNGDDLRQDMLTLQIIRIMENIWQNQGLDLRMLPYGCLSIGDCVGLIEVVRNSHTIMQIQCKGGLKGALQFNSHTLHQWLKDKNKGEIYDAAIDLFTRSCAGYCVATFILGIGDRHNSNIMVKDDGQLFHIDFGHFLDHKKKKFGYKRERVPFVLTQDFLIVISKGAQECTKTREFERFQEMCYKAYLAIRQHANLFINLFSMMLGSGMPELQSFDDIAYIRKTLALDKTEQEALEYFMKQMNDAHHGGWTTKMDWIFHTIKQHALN
T1 sequence (P27986 whole entry partner): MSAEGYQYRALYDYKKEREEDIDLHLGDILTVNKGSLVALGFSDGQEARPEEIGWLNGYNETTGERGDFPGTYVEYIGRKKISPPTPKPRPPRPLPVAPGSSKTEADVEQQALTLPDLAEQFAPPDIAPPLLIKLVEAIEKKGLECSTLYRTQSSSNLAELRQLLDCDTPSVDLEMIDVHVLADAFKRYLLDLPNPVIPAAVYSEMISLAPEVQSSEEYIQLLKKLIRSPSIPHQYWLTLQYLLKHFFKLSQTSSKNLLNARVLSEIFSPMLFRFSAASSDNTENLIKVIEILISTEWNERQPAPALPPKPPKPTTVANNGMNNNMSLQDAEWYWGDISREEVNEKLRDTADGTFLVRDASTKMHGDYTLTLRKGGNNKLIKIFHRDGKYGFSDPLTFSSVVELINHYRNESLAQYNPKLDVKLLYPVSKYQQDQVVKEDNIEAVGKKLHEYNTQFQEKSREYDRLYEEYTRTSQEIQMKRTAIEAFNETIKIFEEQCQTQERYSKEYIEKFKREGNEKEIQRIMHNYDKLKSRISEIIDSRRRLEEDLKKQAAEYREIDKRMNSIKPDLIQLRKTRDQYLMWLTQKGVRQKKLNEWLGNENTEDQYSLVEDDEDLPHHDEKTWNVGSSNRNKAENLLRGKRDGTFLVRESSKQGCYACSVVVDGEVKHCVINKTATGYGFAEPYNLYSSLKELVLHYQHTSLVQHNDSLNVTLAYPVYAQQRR
Procedure, shortened: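 Biotinylated human PI3Kα (baculovirus-expressed, 4.5 nmol/L) pre-incubated 15 min with compound in Tris-HCl pH 7.5, MgCl2, BSA; reaction 60 min at 25° C with 50 μmol/L PIP2 and 100 μmol/L ATP final. ADP quantified by ADP-Glo luminescence; IC50 calculated.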

[1] = target: T2, GST fusion human ERK2 protein (Homo sapiens, UniProt P28482); assay: ERK2 enzyme assay (1); assay type: biochemical; settings: read-out: ERK2 enzyme inhibitory activity (1)
T2 construct: purchased Carna Biosciences, Inc; host or cells: E. coli expression system
T2 sequence (P28482 whole entry, the tested form may be a part): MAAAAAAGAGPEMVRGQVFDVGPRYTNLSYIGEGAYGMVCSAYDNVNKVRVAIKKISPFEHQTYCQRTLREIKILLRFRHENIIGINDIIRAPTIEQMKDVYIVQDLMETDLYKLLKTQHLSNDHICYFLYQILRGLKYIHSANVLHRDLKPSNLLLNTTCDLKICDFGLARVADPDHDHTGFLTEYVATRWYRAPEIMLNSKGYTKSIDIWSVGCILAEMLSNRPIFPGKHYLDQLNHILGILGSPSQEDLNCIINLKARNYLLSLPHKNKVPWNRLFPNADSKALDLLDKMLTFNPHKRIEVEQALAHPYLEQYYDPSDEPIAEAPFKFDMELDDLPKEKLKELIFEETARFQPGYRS
Procedure, shortened: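 IC50 derived from the proportion of phosphorylated 5-FAM peptide, separated from unphosphorylated peptide by microfluidic mobility shift. Compound was first preincubated 15 min at room temperature with 2.5 nmol/L kinase at pH 7.5, then 43.1 μmol/L ATP plus 4.25 μmol/L substrate reacted 120 min at 25 °C.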

CHO-K1 cells = assay: CHO cell toxicity test; assay type: cell-based, Chinese hamster; settings: Cricetulus griseus; CHO-K1 cells, 24 hours culture with compound, CellTiter-Glo; read-out: IC50 value (concentration at which the number of viable cells was suppressed to 50% or less)
Procedure, shortened: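 CHO-K1 cells were cultured 24 h, then exposed 24 h to compound at final 25.00 to 0.20 μmol/L in F-12 with 2% FCS. Viability read by CellTiter-Glo luminescence; inhibition % = 100 − (treated/untreated signal)×100.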

[2] = target: T2, GST fusion human ERK2 protein; assay: ERK2 enzyme assay (2); assay type: biochemical; settings: ERK2 enzyme assay (2); read-out: ERK2 enzyme inhibitory activity (2)
Procedure, shortened: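 IC50 values come from mobility-shift measurement of phosphorylated versus unphosphorylated 5-FAM peptide substrate after EDTA quench. Beforehand, compound and 1.25 nmol/L E. coli-expressed GST–human ERK2 stood 15 min at room temperature (pH 7.5), then 1 mmol/L ATP and 4.25 μmol/L substrate (final) were added for 120 min at 25 °C.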

Row | Compound | IC50 (human PI3Kα protein) [nM] | IC50 ([1]; ERK2 enzyme assay (1)) [nM] | IC50 (CHO-K1 cells) [nM] | IC50 (human PI3Kα protein; 4.5 nmol/L PI3Kα, PIP2 50 μmol/L, ATP 100 μmol/L) [nM] | IC50 ([1]; 2.5 nmol/L ERK2, ATP 43.1 μmol/L) [nM] | IC50 [2] [nM]
1 | c1nc2ccc(Nc3nnc([C@@H]4CCCO4)s3)nc2cc1-c1cnn(CCCN2CCCC2)c1 [Example 0233] | < 1000 | < 1000 | ≥ 25000 |  |  | 
2 | c1nc2ccc(Nc3nnc(C4CCOCC4)s3)nc2cc1-c1cnn(CCCN2CCCC2)c1 [Example 0245] | < 1000 | < 1000 | ≥ 25000 |  |  | 
3 | c1nc2ccc(Nc3nnc(C4CCOC4)s3)nc2cc1-c1cnn(CCCN2CCCC2)c1 (stereo not drawn) [Example 0238] | < 1000 | < 1000 | ≥ 25000 |  |  | 
4 | CC(C)c1cnnc(Nc2ccc3ncc(-c4cnn(CCC(O)C(F)(F)F)c4)cc3n2)c1 (stereo not drawn) [Example 0400] | < 1000 | < 1000 | ≥ 25000 |  |  | 
5 | Cc1nnc(Nc2ccc3ncc(-c4cnn(CCCN(C)C)c4)cc3n2)s1 [Example 0302] | < 1000 | < 1000 | ≥ 25000 |  |  | 
6 | c1nc2ccc(Nc3nnc(C4CCCO4)s3)nc2cc1-c1cnn(CCCN2CCCC2)c1 (stereo not drawn) [Example 0325, N-(7-(1-(3-(pyrrolidin-1-yl)propyl)-1H-pyrazol-4-yl)-1,5-naphthyridin-2-yl)-5-(tetrahydrofuran-2-yl)-1,3,4-thiadiazole-2-amine] | < 1000 | < 1000 | ≥ 25000 |  |  | 
7 | c1nc2ccc(Nc3nnc([C@H]4CCCO4)s3)nc2cc1-c1cnn(CCCN2CCCC2)c1 [Example 0237] | < 1000 | < 1000 | ≥ 25000 |  |  | 
8 | c1nc2ccc(Nc3cc(C4CCOC4)cnn3)nc2cc1-c1cnn(CCCN2CCCC2)c1 (stereo not drawn) [Example 0019, 7-(1-(3-(Pyrrolidin-1-yl)propyl)-1H-pyrazol-4-yl)-N-(5-(tetrahydrofuran-3-yl)pyridazin-3-yl)-1,5-naphthyridine-2-amine] |  |  | ≥ 25000 | < 1000 | < 1000 | 
9 | CC(C)c1cnnc(Nc2ccc3ncc(-c4cnn(CCCN5CCCC5=O)c4)cc3n2)c1 [Example 0422] | < 1000 |  | ≥ 25000 |  |  | < 1000
10 | CC(C)c1cnnc(Nc2ccc3ncc(-c4cn(C)nc4-c4cccnc4)cc3n2)c1 [Example 0515] | < 1000 |  | ≥ 25000 |  |  | < 1000
11 | CC(C)c1cnnc(Nc2ccc3ncc(-c4cnn(CCCN5C6CCC5COC6)c4)cc3n2)c1 [Example 0651] | < 1000 |  | ≥ 25000 |  |  | < 1000
12 | CC(C)c1cnnc(Nc2ccc3ncc(-c4cnn(CCCN5CCO[C@@H](C)C5)c4)cc3n2)c1 [Example 0644] | < 1000 |  | ≥ 25000 |  |  | < 1000
13 | CC(C)c1cnnc(Nc2ccc3ncc(-c4cnn(CCCN5CCOC[C@@H]5C)c4)cc3n2)c1 [Example 0650] | < 1000 |  | ≥ 25000 |  |  | < 1000
14 | CC(C)c1cnnc(Nc2ccc3ncc(-c4cnn(CCCN5CC(N)C5)c4)cc3n2)c1 [Example 0695, 7-(1-(3-(3-aminoazetidin-1-yl)propyl)-1H-pyrazol-4-yl)-N-(5-isopropylpyridazin-3-yl)-1,5-naphthyridine-2-amine] | < 1000 |  | ≥ 25000 |  |  | < 1000
15 | CC(C)c1cnnc(Nc2ccc3ncc(-c4cnn(CCCN5CCCOCC5)c4)cc3n2)c1 [Example 0665] | < 1000 |  | ≥ 25000 |  |  | < 1000
16 | CCN(CC)c1cnnc(Nc2ccc3ncc(-c4cnn(C)c4)cc3n2)c1 [Example 0517] | < 1000 |  | ≥ 25000 |  |  | < 1000
17 | CC(C)c1cnnc(Nc2ccc3ncc(-c4cnn(CC5CN(C)C5)c4)cc3n2)c1 [Example 0491] | < 1000 |  | ≥ 25000 |  |  | < 1000
18 | COCC1CN(CCCn2cc(-c3cnc4ccc(Nc5cc(C(C)C)cnn5)nc4c3)cn2)CCO1 (stereo not drawn) [Example 0679] | < 1000 |  | ≥ 25000 |  |  | < 1000
19 | CC(C)c1cnnc(Nc2ccc3ncc(-c4cnn(CCCN5CCOC[C@H]5C)c4)cc3n2)c1 [Example 0649] | < 1000 |  | ≥ 25000 |  |  | < 1000
